In US11858877B2 (priority 2019, dated 2024):

What was measured:
[1] = biological target: T1, recombinant activated IKKβ (Homo sapiens, UniProt O14920); assay: In vitro IKKβ kinase assay (ADP-Glo); type: biochemical; conditions: for IKKβ kinase activity: at 10-fold higher concentrations than used in cell-based experiments; for inhibitory activity over IKKβ kinase activity: at the concentrations used in this study
T1 construct: purchased Promega V4502
T1 sequence (O14920 1-756): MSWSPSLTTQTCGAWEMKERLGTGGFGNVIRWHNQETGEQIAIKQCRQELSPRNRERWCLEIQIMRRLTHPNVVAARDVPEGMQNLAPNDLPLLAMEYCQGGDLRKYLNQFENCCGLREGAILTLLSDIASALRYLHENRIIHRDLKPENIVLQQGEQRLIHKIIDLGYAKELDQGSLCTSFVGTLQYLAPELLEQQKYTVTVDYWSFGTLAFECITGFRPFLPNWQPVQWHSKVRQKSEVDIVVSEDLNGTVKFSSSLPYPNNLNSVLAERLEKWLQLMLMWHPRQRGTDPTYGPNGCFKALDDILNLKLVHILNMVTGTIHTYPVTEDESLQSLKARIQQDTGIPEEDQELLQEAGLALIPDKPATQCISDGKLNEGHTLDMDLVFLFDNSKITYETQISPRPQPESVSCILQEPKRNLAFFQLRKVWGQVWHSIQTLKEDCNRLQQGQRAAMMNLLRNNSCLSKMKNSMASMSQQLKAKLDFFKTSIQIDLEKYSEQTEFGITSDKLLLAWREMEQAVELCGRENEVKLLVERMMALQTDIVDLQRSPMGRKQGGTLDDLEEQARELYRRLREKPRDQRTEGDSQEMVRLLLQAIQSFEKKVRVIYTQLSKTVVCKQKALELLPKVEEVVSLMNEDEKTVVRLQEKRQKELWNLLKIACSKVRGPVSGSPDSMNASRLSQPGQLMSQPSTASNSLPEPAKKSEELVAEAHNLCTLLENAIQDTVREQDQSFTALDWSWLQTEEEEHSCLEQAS
Method: 1× kinase buffer A (40 mM Tris-HCl pH 7.4, 20 mM MgCl2, 0.1 mg/mL BSA, supplemented with 2 mM MnCl2, 2 mM DTT and 100 μM Sodium vanadate) was used to prepare all components of the reaction. All components were prepared in a 96-well plate and transferred to every other well of a 384-well opaque plate (Sigma-Aldrich, CLS3825-10EA) using a multichannel pipet. A 2.5× ATP/IKKtide substrate mix (62.5 μM ATP mixed with 0.5 μg/μL IKKtide) was prepared, and a 5× concentration of the indicated concentration of compounds in 0.5% DMSO, maintaining a final DMSO concentration of 0.1% in all reactions. […] The plate was briefly spun, and the reaction incubated at room temperature for 1 h. Next, 5 μL of ADP-Glo reagent were added to each well, spun and incubated for 40 minutes at room temperature. Finally, 10 μL of Kinase Detection Reagent were added to each well and incubated for 30 minutes at room temperature. Luminescence from each well was measured using an integration time of 500 ms in a M4 microplate reader (SpectraMax). Data from triplicate reactions were extracted and plotted.

IKKγ = assay: Western blot of IKKγ expression in CRISPR-modified U2OS cells; type: cell-based, human; conditions: Actin-corrected band intensity
Method: U2OS cells (parental and expressing EGFP-RelA/IKKγ via CRISPR Knock-in) were cultured for 24 hrs in complete growth medium. After treatments, cells were lysed in SDS-based lysis buffer consisting of 120 mM Tris-Cl, pH 6.8, 4% SDS supplemented with protease and phosphatase inhibitors at 4° C. for 30 min. Protein extracts were clarified by centrifugation at 4° C. at 12,000×g for 10 min. Lysate protein levels were quantified by BCA assay (Pierce). Samples were separated by SDS-PAGE, 25 μg total protein per lane, then transferred to PVDF membranes. Blocking was done in 5% milk in TBS for 1 hour. Primary antibodies directed at RelA and β-actin (#4764 and #3700 respectively; Cell Signaling Technology), IKKγ and GAPDH (sc-8330 and sc25778 respectively; Santa Cruz) were diluted in 5% milk in TBS-T and incubated overnight at 4° C. Alexa 680/800-conjugated secondary antibodies (LICOR) were used in combination with an Odyssey (LI-COR) scanner for detection and quantification of band intensities.

[2] = test system: TNF-induced nuclear translocation of NF-kB; assay: Live-cell imaging of TNF-induced nuclear FP-RelA (NF-kB) translocation in single U2OS cells; type: cell-based, human; conditions: for Maximum fold change (Max) of nuclear FP-RelA / area under the fold change curve (AUC) of nuclear FP-RelA: 10 μM compound pretreatment before addition of TNF; for potency in restricting the signaling network upstream of NF-kB activation: TNF-stimulated U2OS FP-RelA cells; for nuclear mobilization of NF-kB: U2OS FP-RelA cells pre-treated with compound before exposure to TNF
Method: Rep., 22:585-599 (2018)).
To quantify the compounds' effect on NF-kB dynamics, each single-cell trajectory was decomposed into a series of descriptors (FIG. 3c) that transmit information within the cell about extracellular cytokine concentrations (Zhang et al., Cell. Syst., 5:638-645 e635 (2017)).
(§1) Live cells were imaged in an environmentally controlled chamber (37° C., 5% CO2) on a DeltaVision Elite microscope equipped with a pco.edge sCMOS camera and an Insight solid-state illumination module (GE). U2OS cells expressing FP-RelA/IKKγ were seeded at a density of 25000 cells/well 24 hours prior to live-cell imaging experiments on no. 1.5 glass bottom 96 well imaging plates (Matriplate). For imaging of FP-RelA nuclear translocation, live-cells were pre-treated with DMSO or indicated concentrations of compounds for 2 hours before exposure to either 100 ng/ml recombinant human TNF (Peprotech) or 100 ng/ml recombinant human IL1β (Peprotech). Wide-field epifluorescence and DIC images were collected using a 20× […] objective (0.45NA; Olympus). Cells were imaged for at least 30 minutes prior to addition of compounds. For detection of IKKγ puncta, live-cells were pre-treated with DMSO or indicated concentration of compounds for 2 hours before exposure to 100 ng/ml TNF. Wide-field epifluorescence and DIC images were collected using a 60× […] objective. […] Time-lapse images were collected over at least 4 fields per condition with a temporal resolution of 5 minutes per frame. Quantification of nuclear FP-RelA localization and the formation IKKγ puncta from flat-field and background corrected images was performed using customized scripts in Matlab and ImageJ.
For permutation tests, data from the TNF-only and the indicated experimental condition were combined and randomly distributed into ‘Permuted control’ and ‘Permuted experimental’ bins without replacement, preserving the size of the original control and experimental data sets. 10^6 permutations were performed and the difference between the means of permuted control and experimental data were calculated for each condition to generate a histogram. Two-tailed p-values were determined by computing the fraction of permuted data sets where Δmeanpermuted≥Δmeanunpermuted (FIGS. 12, 13, and 15).

U2OS cells = assay: Compound toxicity comparison, LIVE/DEAD Cell Imaging Kit; type: cell-based, human; conditions: 10 μM, 2 h, 16 h or 24 h
Method: Cytotoxicity of the three compounds was compared with Bay 11-7082 (Cayman, 10010266), an inhibitor of the NF-κB pathway at working concentrations of 1-10 μM, using the LIVE/DEAD Cell Imaging Kit (488/570) (Invitrogen, R37601). For each condition, 15,000 U2OS cells were seeded in 200 μL of growth medium in each well of 96-well plate 48 h before microscopy. Next, medium was changed to medium containing either DMSO, 10 μM of indicated compound, or 10 μM of Bay 11-7082 for the indicated duration (2 h, 16 h, or 24 h). Before imaging, medium was changed to phenol red-free FluoBrite DMEM (Gibco, A18967-01) containing 300 ng/mL of Hoechst 33342, and 1:10000 of both Live Green and Dead Red dyes of the LIVE/DEAD Cell Imaging Kit. Cells were incubated for 60 minutes and imaged on the Delta Vision Elite imaging system at 20× magnification with a […] objective (0.45NA; Olympus). Analysis was done using Cell Profiler to segment cells and quantify median nuclear intensity values. Further analysis was performed using custom scripts in MATLAB. Data from biological triplicates were plotted as the mean ± SD.

full length TRAF2 = biological target: T2, full length TRAF2 (Homo sapiens, UniProt Q12933); assay: Fluorescence-based thermal shift assay of TRAF2; type: binding; conditions: 1 uM GST-TRAF2, melt curve 25-99° C.
T2 construct: dose-dependent stabilizing effect on full length TRAF2; purchased Rockland
T2 sequence (Q12933 1-501): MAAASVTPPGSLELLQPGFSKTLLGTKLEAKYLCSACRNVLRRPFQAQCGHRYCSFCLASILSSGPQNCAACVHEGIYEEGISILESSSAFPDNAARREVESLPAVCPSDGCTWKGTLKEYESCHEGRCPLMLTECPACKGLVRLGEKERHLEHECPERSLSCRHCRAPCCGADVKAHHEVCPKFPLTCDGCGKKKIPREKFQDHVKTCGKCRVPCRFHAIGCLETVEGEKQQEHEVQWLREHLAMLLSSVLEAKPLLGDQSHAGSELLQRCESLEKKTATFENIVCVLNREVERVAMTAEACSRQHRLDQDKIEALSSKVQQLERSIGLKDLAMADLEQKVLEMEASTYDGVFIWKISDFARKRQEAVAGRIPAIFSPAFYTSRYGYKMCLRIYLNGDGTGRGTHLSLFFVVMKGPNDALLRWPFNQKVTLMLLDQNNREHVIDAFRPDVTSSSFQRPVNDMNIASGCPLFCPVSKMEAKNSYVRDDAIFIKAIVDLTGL
Method: To test whether the compounds interact with TRAF2 in vitro, the thermal stability of purified TRAF2 in the presence of each compound was measured.
TRAF2—compound interactions were measured by fluorescence-based thermal shift using an Applied Biosystems ABI QuantStudio(TM) 6 Flex System. […] PCR plates were covered with optical seal, shaken, and centrifuged after protein and compounds were added. The instrument was programmed in the Melt Curve mode and the Standard speed run. The reporter was selected as Rox and None for the quencher. Each melt curve was programmed as follows: 25° C. for 2 min, followed by a 0.05° C. increase per second from 25° C. to 99° C., and finally 99° C. for 2min. Fluorescence intensity was collected continuously. In the Melt Curve Filter section, X4 (580 ±10)-M4 (623±14) was selected for the Excitation Filter-Emission Filter. The raw data was extracted in MS-Excel format.

mature TNFR1 complex = assay: Live-cell imaging of FP-IKK puncta in TNF-stimulated U2OS cells; type: cell-based, human; conditions: pretreated with compound before 100 ng/mL TNF
Method: as §1

[3] = test system: IL1-induced dynamics of nuclear NF-kB; assay: Live-cell imaging of IL1-induced nuclear FP-RelA (NF-kB) dynamics in U2OS cells; type: cell-based, human; conditions: 10 μM compound, 100 ng/mL IL1
Method: Live cells were imaged in an environmentally controlled chamber (37° C., 5% CO2) on a DeltaVision Elite microscope equipped with a pco.edge sCMOS camera and an Insight solid-state illumination module (GE). U2OS cells expressing FP-RelA/IKKγ were seeded at a density of 25000 cells/well 24 hours prior to live-cell imaging experiments on no. 1.5 glass bottom 96 well imaging plates (Matriplate). For imaging of FP-RelA nuclear translocation, live-cells were pre-treated with DMSO or indicated concentrations of compounds for 2 hours before exposure to either 100 ng/ml recombinant human TNF (Peprotech) or 100 ng/ml recombinant human IL1β (Peprotech). Wide-field epifluorescence and DIC images were collected using a 20× […] objective (0.45NA; Olympus). […] Quantification of nuclear FP-RelA localization and the formation IKKγ puncta from flat-field and background corrected images was performed using customized scripts in Matlab and ImageJ.
For permutation tests, data from the TNF-only and the indicated experimental condition were combined and randomly distributed into ‘Permuted control’ and ‘Permuted experimental’ bins without replacement, preserving the size of the original control and experimental data sets. 10^6 permutations were performed and the difference between the means of permuted control and experimental data were calculated for each condition to generate a histogram. […]

| SMILES | IKKβ kinase activity [1] | inhibitory activity over IKKβ kinase activity [1] | overall expression level of IKKγ (IKKγ) | Maximum fold change (Max) of nuclear FP-RelA [2] | area under the fold change curve (AUC) of nuclear FP-RelA [2] | potency in restricting the signaling network upstream of NF-kB activation [2] | nuclear mobilization of NF-kB [2] | cytotoxicity (fraction of surviving cells) (U2OS cells) | dose-dependent stabilizing effect on full length TRAF2 (thermal shift) (full length TRAF2) | number of TNF-induced FP-IKK puncta (mature TNFR1 complex) | IL1-induced dynamics of nuclear NF-kB vs IL1-only control cells [3] |
| --- | --- | --- | --- | --- | --- | --- | --- | --- | --- | --- | --- |
| CC(C)CN1CCN(C(=O)COC(=O)c2ccc(S(C)(=O)=O)c([N+](=O)[O-])c2)CC1 [Compound 2] | not inhibited | no direct inhibitory activity | reduced | significantly less | significantly less | low micromolar potency | reduced with increasing concentration | low cytotoxicity | subtle | greatly reduced | indistinguishable |
| CCC(OC(=O)c1ccc(S(C)(=O)=O)c([N+](=O)[O-])c1)C(=O)NC1C2CC3CC(C2)CC1C3 (stereo not shown) [Compound 3] | not inhibited | no direct inhibitory activity | reduced | significantly less | significantly less | low micromolar potency | reduced with increasing concentration | low cytotoxicity | moderate | greatly reduced | indistinguishable |
